Values of other authors, collected in patent publication US6346530B1, “Process for the preparation of a bioavailable oral dosage form of cefuroxime axetil” (Ranbaxy Laboratories Limited, priority 1999, dated 2002).

Conditions: background, result in words

SMILES	Bioavailability upon oral administration
CO/N=C(\C(=O)N[C@@H]1C(=O)N2C(C(=O)OC(C)OC(C)=O)=C(COC(N)=O)CS[C@H]12)c1ccco1 (some centres unmarked) [Crystalline cefuroxime axetil, cefuroxime axetil]	does not exhibit adequate bioavailability
CO/N=C(\C(=O)N[C@@H]1C(=O)N2C(C(=O)OC(C)OC(C)=O)=C(COC(N)=O)CS[C@H]12)c1ccco1 (some centres unmarked) [amorphous form of cefuroxime axetil, cefuroxime axetil]	high bioavailability
